Results as given in patent US20230346827A1 (priority 2020, published 2023).

Key:
[1] = tested on: coronary artery smooth muscle cells + (IL-1 β, TNFα and IFNy); test: BioMAP CASM3C system; format: cell-based, human; conditions: annotated relative to vehicle controls
Text: Cell types and stimuli used in each system are as follows: 3C system [HUVEC + (IL-1β, TNFα and IFNy)], 4H system [HUVEC + (IL-4 and histamine)], LPS system [PBMC and HUVEC + LPS (TLR4 ligand)], SAg system [PBMC and HUVEC + TCR ligands], BT system [CD19+ B cells and PBMC + (α-IgM and TCR ligands)], BF4T system [bronchial epithelial cells and HDFn + (TNFα and IL-4)], BE3C system [bronchial epithelial cells + (IL-1β, TNFα and IFNy)], CASM3C system [coronary artery smooth muscle cells + (IL-1 β, TNFα and IFNy)], HDF3CGF system [HDFn + (IL-1β, TNFα, IFNy, EGF, bFGF and PDGF-BB)], KF3CT system [keratinocytes and HDFn + (IL-1β, TNFα, IFNy and TGFβ)], MyoF system [differentiated lung myofibroblasts + (TNFα and TGFβ)] and Mphg system [HUVEC and M1 macrophages + Zymosan (TLR2 ligand)].
Systems are derived from either single cell types or co-culture systems. Adherent cell types are cultured in 96 or 384-well plates until confluence, followed by the addition of PBMC (SAg and LPS systems). […] Soluble factors from supernatants are quantified using either HTRF® detection, bead-based multiplex immunoassay or capture ELISA. Overt adverse effects of test agents on cell proliferation and viability (cytotoxicity) are detected by sulforhodamine B (SRB) staining, for adherent cells, and alamarBlue® reduction for cells in suspension. […]

[2] = tested on: rats with TGFβ1-induced trabecular meshwork fibrosis; test: Rodent model of anterior segment fibrosis / ocular hypertension (IC TGFβ1), s.c. LMW-DS 15 mg/kg daily; format: in vivo, rat; conditions: day 28
Experimental: Before induction of raised IOP, rats were randomly assigned into two groups (for saline vehicle and LMW-DS treatment). Induction of raised IOP was induced as previously described (Hill LJ, et al. Decorin reduces intraocular pressure and retinal ganglion cell loss in rodents through fibrolysis of the scarred trabecular meshwork. Investigative ophthalmology & visual science. 2015; 56(6): 3743-57). At 0 d, a 15° disposable blade was used to make a self-sealing tunnel through the cornea and this access point was employed for all subsequent twice weekly 3.5 µl IC injections of 5 ng/ml TGFβ1 (Peprotech, London, UK), carried out using sterile glass micropipettes (Harvard Apparatus, Kent, UK) over the 28 d experiment. IOP was also measured twice-weekly (immediately prior to the IC injection) throughout the 28 d experiment. […] At 14 d, rats received either subcutaneous injections of 15 mg/kg LMW-DS (Tikomed AB) or an equivalent saline volume, which continued daily for 14 d. OCT measurements of the RFNL were taken at 28 d as a surrogate for RGC density and ocular tissues from both groups were processed for immunohistochemistry to assess levels of TM fibrosis and RGC survival.
Adult 10 week old) male Sprague Dawley rats (Charles River, Kent, UK) were housed with free access to food and water under a 12 h dark/light cycle. Surgery was performed at the Biomedical Services Unit at the University of Birmingham (UK) in accordance with the Home Office guidelines set out in the 1986 Animal Act (UK) and the ARVO Statement for the Use of Animals in Ophthalmic and Vision Research. Intraocular injections, optical coherence tomography and intraocular pressure measurements were all taken whilst rats were under inhaled anesthesia using between 2% - 5% isofluorane / 98% - 95% O2 (National Vet Supplies, UK). The welfare of all rats was monitored closely at all times.
IOP measurements were obtained using an iCare Tonolab (ICare, Helsinki, Finland) calibrated for rats. IOP was recorded twice weekly between 9 am and 11 am throughout the 28 d experiment to avoid confounding circadian variabilities in IOP. Immediately after induction of anesthesia, six rebound measurements were taken with the tonometer from the central cornea and averaged to give a single reading (mmHg). Each graphical data point represents the mean ± SEM of three readings (6 rebounds) taken from each rat sequentially to ensure accurate measurements.
Retinal nerve fiber layer (RNFL) measurements were taken at 28 d using a Spectralis HRA3 confocal scanning laser ophthalmoscope (Heidelberg Engineering, Heidelberg, Germany). Images were obtained from rats whilst under inhalational anesthesia (as described in the ‘Animals and Surgery’ section above). OCT images were taken of the retina around the optic nerve head and in-built software was used to segment images and quantify the RNFL thickness.
Rats were euthanized by an intraperitoneal injection of sodium pentobarbital (National Veterinary Supplies) on 28 d and intracardially perfused with 4% paraformaldehyde (PFA; TAAB, Aldermaston, UK) in PBS whilst under terminal anesthesia. Eyes were removed and immersion fixed in 4% PFA in PBS for 2 hours at room temperature and then cryoprotected using increasing concentrations of (10%, 20% and 30% sucrose) for 24 hours each at 4° C. […]

sodium salt of dextran sulfate [LMW-DS]
Decreased biomarker activity [1]: VCAM-1, MIG | fibronectin in the TM (immunoreactive) [2]: 40.2 ± 4.0% | laminin in the TM (immunoreactive) [2]: 25.6 ± 3.5% | retinal nerve fibre layer (RNFL) thickness (OCT) [2]: 59.9 ± 1.2 µm | surviving retinal ganglion cells (RGC) [2]: 12.6 ± 0.4 RGC/mm | IOP ([2]; IC TGFβ1 with SC LMW-DS from day 14): 11.4 ± 0.2 mmHg
